Read-outs that look alike come from different tables or passages of the source.
Tests used:
E. coli strain MG1655 = tested on: E. coli strain MG1655
Description: For the stationary phase studies, E. coli strain MG1655 (ATCC #700926) was grown overnight in LB medium (Teknova, Half Moon Bay, Calif.) with shaking at 250 rpm at 42° C., 29° C. or 28° C. […] To these were added 10 μL of the overnight cultures and the tubes were immediately placed in shaking incubators at 42° C. or 28° C. or left on ice for 30 min. […] Then, 5 μL of the undiluted treated cultures were spotted on LB agar plates. Subsequent 10-fold serial dilutions of 10^−3, 10^−4, 10^−5 and 10^−6 of the exposed cultures were done by serial pipetting of 20 μL, starting with the 10^−2 dilution cultures, into 180 μL of LB medium in the microplate, using a multi-channel pipette. Prior to each transfer, the cultures were mixed by pipetting up and down six times. Each dilution (5 μL) was spotted onto an LB plate using a multi-channel pipette and allowed to soak into the plate. The plates were inverted and incubated overnight at 37° C. […] Survival of 0% was recorded when no colonies in the spots of the undiluted or any of the serial dilutions were observed.

E. coli (strain MG1655) = conditions: for % Survival at 30° C. / % Survival at 37° C. / % Survival at 0° C.: 1 h; for concentration at which E. coli cells were killed: one hour
Description: (§1) Using overnight cultures or cells from plates, 30 mL cultures of the microorganisms to be tested were started in the following culture media: • E. coli—Miller's LB medium (Teknova, Half Moon Bay, Calif.): • L. plantarum PN0512—Lactobacilli MRS Broth (BD Diagnostic Systems, Sparks, Md.). The E. coli and L. plantarum cultures were grown at 37° C. aerobically with shaking until the cultures were in log phase and the OD600 was between 0.6 and 0.8. A 50 μL aliquot of each culture was removed for a time zero sample. The remainder of the cultures was divided into six 5 mL portions and placed in six small incubation flasks or tubes. […] The flasks or tubes were incubated at a desired temperature, aerobically without shaking for 1 h. After the incubation with one of the butanols, 2 μL from each of the flasks (and in addition 2 μL of the time zero sample of the culture before exposure to one of the butanols) were pipetted into the “head” wells of a 96 well (8×12) microtiter plate, each containing 198 μL of LB medium to give a 10^−2 dilution of the culture. Subsequently, 10^−3, 10^−4, 10^−5, and 10^−6 serial dilutions of the cultures were prepared as follows. The 10^−3 dilution was prepared by pipetting 20 μL of the sample from the head well into the 180 μL LB medium in the next well using a multi-channel pipette. This procedure was repeated 3 more times on successive wells to prepare the 10^−4, 10^−5, and 10^−6 dilutions. After each liquid transfer, the solution in the well was mixed by pipetting it up and down 10 times with the multi-channel pipetor. A 5 μL aliquot of each dilution was spotted onto an LB plate using a multi-channel pipette starting with the 10^−6 dilution, then the 10^−5, and so on working from more to less dilute without a change of tips. The spots were allowed to soak into the agar by leaving the lid of the plate slightly open for 15 to 30 min in a sterile transfer hood. The plates were covered, inverted, and incubated overnight at 37° C. The following day, the number of colonies in the spots were counted from the different dilutions. The number of living cells/mL in each of the original culture solutions from which the 2 μL was withdrawn was calculated and compared to the number of cells in the control untreated culture to determine the % of the cells surviving.

L. plantarum PN0512 = conditions: for % Survival at 37° C. / % Survival at 23° C. / % Survival at 0° C. / concentration at which L. plantarum PN0512 cells were killed: one hour
Description: as §1

[1] = 1.0 % (w/v) 1-butanol, grown at 29° C.
[2] = 1.0 % (w/v) 1-butanol, grown at 42° C.
[3] = 1.5 % (w/v) 1-butanol, grown at 29° C.
[4] = 1.5 % (w/v) 1-butanol, grown at 42° C.
[5] = 2.0 % (w/v) 1-butanol, grown at 29° C.
[6] = 2.0 % (w/v) 1-butanol, grown at 42° C.
[7] = 3.0 % (w/v) 1-butanol, grown at 29° C.
[8] = 3.0 % (w/v) 1-butanol, grown at 42° C.
[9] = 4.0 % (w/v) 1-butanol, grown at 29° C.
[10] = 4.0 % (w/v) 1-butanol, grown at 42° C.
[11] = […] (w/v) 1-butanol, grown at 29° C.
[12] = […] (w/v) 1-butanol, grown at 42° C.

## 1-butanol
E. coli strain MG1655; 1.0 % (w/v) 1-butanol, grown at 28° C.
  % survival after 30 min exposure at 28° C.: 100%
E. coli strain MG1655; [1]
  % survival after 30 min exposure at 0° C.: 100%
  % survival after 30 min exposure at 42° C.: 100%
E. coli strain MG1655; [2]
  % survival after 30 min exposure at 0° C.: 100%
  % survival after 30 min exposure at 28° C.: 100%
  % survival after 30 min exposure at 42° C.: 100%
E. coli strain MG1655; 1.5 % (w/v) 1-butanol, grown at 28° C.
  % survival after 30 min exposure at 28° C.: 100%
E. coli strain MG1655; [3]
  % survival after 30 min exposure at 0° C.: 100%
  % survival after 30 min exposure at 42° C.: 0.1%
E. coli strain MG1655; [4]
  % survival after 30 min exposure at 0° C.: 100%
  % survival after 30 min exposure at 28° C.: 100%
  % survival after 30 min exposure at 42° C.: 0.1%
E. coli strain MG1655; 2.0 % (w/v) 1-butanol, grown at 28° C.
  % survival after 30 min exposure at 28° C.: 100%
E. coli strain MG1655; [5]
  % survival after 30 min exposure at 0° C.: 100%
  % survival after 30 min exposure at 42° C.: 0.1%
E. coli strain MG1655; [6]
  % survival after 30 min exposure at 0° C.: 100%
  % survival after 30 min exposure at 28° C.: 100%
  % survival after 30 min exposure at 42° C.: 0%
E. coli strain MG1655; 3.0 % (w/v) 1-butanol, grown at 28° C.
  % survival after 30 min exposure at 28° C.: 100%
E. coli strain MG1655; [7]
  % survival after 30 min exposure at 0° C.: 100%
  % survival after 30 min exposure at 42° C.: 0%
E. coli strain MG1655; [8]
  % survival after 30 min exposure at 0° C.: 100%
  % survival after 30 min exposure at 28° C.: 100%
  % survival after 30 min exposure at 42° C.: 0%
E. coli strain MG1655; 4.0 % (w/v) 1-butanol, grown at 28° C.
  % survival after 30 min exposure at 28° C.: 0.0003%
E. coli strain MG1655; [9]
  % survival after 30 min exposure at 0° C.: 100%
  % survival after 30 min exposure at 42° C.: 0%
E. coli strain MG1655; [10]
  % survival after 30 min exposure at 0° C.: 100%
  % survival after 30 min exposure at 28° C.: 0.0004%
  % survival after 30 min exposure at 42° C.: 0%
E. coli strain MG1655; 5.0 % (w/v) 1-butanol, grown at 29° C.
  % survival after 30 min exposure at 0° C.: 1%
E. coli strain MG1655; 5.0 % (w/v) 1-butanol, grown at 42° C.
  % survival after 30 min exposure at 0° C.: 1%
E. coli strain MG1655; 6.0 % (w/v) 1-butanol, grown at 29° C.
  % survival after 30 min exposure at 0° C.: 0.001%
E. coli strain MG1655; 6.0 % (w/v) 1-butanol, grown at 42° C.
  % survival after 30 min exposure at 0° C.: 0%
E. coli strain MG1655; 7.0 % (w/v) 1-butanol, grown at 29° C.
  % survival after 30 min exposure at 0° C.: 0%
E. coli strain MG1655; 7.0 % (w/v) 1-butanol, grown at 42° C.
  % survival after 30 min exposure at 0° C.: 0%
E. coli strain MG1655; [11]
  % survival after 30 min exposure at 0° C.: 100%
  % survival after 30 min exposure at 42° C.: 0%
E. coli strain MG1655; [12]
  % survival after 30 min exposure at 0° C.: 100%
  % survival after 30 min exposure at 42° C.: 0%
E. coli (strain MG1655); 0° C., one hour treatment
  concentration with no toxic effect on E. coli cells: ≤ 4.5 % v/v
E. coli (strain MG1655); 1 % v/v 1-butanol
  % Survival at 30° C.: 100%
  % Survival at 37° C.: 72%
E. coli (strain MG1655); 1.5 % v/v 1-butanol
  % Survival at 30° C.: 100%
  % Survival at 37° C.: 20%
E. coli (strain MG1655); 2 % v/v 1-butanol
  % Survival at 30° C.: 100%
  % Survival at 37° C.: 0%
E. coli (strain MG1655); 3 % v/v 1-butanol
  % Survival at 0° C.: 100%
  % Survival at 30° C.: 0%
  % Survival at 37° C.: 0%
E. coli (strain MG1655); 4 % v/v 1-butanol
  % Survival at 0° C.: 100%
E. coli (strain MG1655); 30° C.
  concentration at which E. coli cells were killed: 3 % v/v
E. coli (strain MG1655); 37° C.
  concentration at which E. coli cells were killed: 2 % v/v
E. coli (strain MG1655); […] v/v 1-butanol
  % Survival at 0° C.: 100%
  % Survival at 37° C.: 0%
L. plantarum PN0512; 0° C., one hour treatment
  concentration with no toxic effect on L. plantarum PN0512 cells: ≤ 4.5 % v/v
L. plantarum PN0512; 1 % v/v 1-butanol
  % Survival at 37° C.: 80%
L. plantarum PN0512; 1.5 % v/v 1-butanol
  % Survival at 37° C.: 58%
L. plantarum PN0512; 2 % v/v 1-butanol
  % Survival at 23° C.: 100%
  % Survival at 37° C.: 29%
L. plantarum PN0512; 3 % v/v 1-butanol
  % Survival at 0° C.: 100%
  % Survival at 23° C.: 82%
  % Survival at 37° C.: 0%
L. plantarum PN0512; 4 % v/v 1-butanol
  % Survival at 0° C.: 100%
  % Survival at 23° C.: 0%
L. plantarum PN0512; 5 % v/v 1-butanol
  % Survival at 0° C.: 0%
L. plantarum PN0512; 5.5 % v/v 1-butanol
  % Survival at 0° C.: 0%
L. plantarum PN0512; 23° C.
  concentration at which L. plantarum PN0512 cells were killed: 3.5 % v/v
L. plantarum PN0512; 37° C.
  concentration at which L. plantarum PN0512 cells were killed: 2.5 % v/v
L. plantarum PN0512; […] v/v 1-butanol
  % Survival at 0° C.: 100%

Source: patent publication US8426174B2, “Method for the production of 2-butanol” (Butamax(TM) Advanced Biofuels LLC, priority 2007, dated 2013)
